Reference: patent publication US20190369111A1, “MOLECULAR KINETICS EVALUATION METHOD AND SCREENING METHOD” (Tokyo University of Science Foundation, priority 2016, published 2019)
Non-standard residues stand in square brackets, D forms with d. Residues, ends and D or L forms follow the SMILES beside them. Nle = CCCC[C@H](N)C(=O)O

Experiments:
[1] = biological target: T1, catalytic subunit β1 of a proteasome (caspase-like activity) (Homo sapiens, UniProt P28072); settings: reported by Kaiser, M. et al., 2004; patent's result consistent; cited from earlier work
T1 construct: purchased Bioscience

DHFR protein = biological target: T2, DHFR protein (Mus musculus, UniProt P00375); assay: Degradation of DHFR protein in each tissue of mouse after administration, Western blot analysis; assay type: in vivo
T2 construct: administered intraperitoneally to C57BL/6J wild-type mice; from tissue; host or cells: C57BL/6J wild-type mice: liver, kidneys, heart
T2 sequence (P00375 1-187): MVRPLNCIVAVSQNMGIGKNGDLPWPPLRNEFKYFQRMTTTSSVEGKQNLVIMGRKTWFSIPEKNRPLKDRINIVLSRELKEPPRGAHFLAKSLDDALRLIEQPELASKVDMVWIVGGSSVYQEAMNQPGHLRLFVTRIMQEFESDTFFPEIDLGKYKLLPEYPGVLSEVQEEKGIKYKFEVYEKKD
Description: MTX-CANDDY_MLN was dissolved in DMSO immediately before administration, and then dissolved in corn oil (Code No. 25606-55, Nacalai Tesque) so that the concentration of DMSO was 10 vol %, and then a dose of 50 mg/kg body weight or 100 mg/kg body weight was administered intraperitoneally to C57BL/6J wild-type mice (7 weeks old, male) (CLEA Japan, Inc.) (n=3). […] As a control, an injection carrier (corn oil containing 10 vol % DMSO) was used. The mice were kept under an environment of ad libitum access to food and water. The mice were dissected under deep anesthesia by Somnopentyl (Kyoritsu Seiyaku Corporation) 24 hours after administration. Abdominal section was performed, and then the liver, kidneys, and heart were sequentially extracted and flash frozen in liquid nitrogen. Each tissue frozen in liquid nitrogen was stored in a deep freezer at −80° C.
The frozen tissues (0.04 g) were each frozen and triturated, and then 980 μL of 1×TKM tissue lysis buffer (50 mM triethanolamine (pH 7.8), 50 mM KCl, 5 mM MgCl2, 0.25 M sucrose, 1 mM PMSF, protein inhibitors cocktail-EDTA free (Code No. 03969-21, Nacalai Tesque, Inc.), 1 mM DTT, and 5 μL/mL recombinant RNase inhibitor (40 U/μL, Cat No. 2313A, Lot No. K8402DA, TAKARA Bio)) were added, and dissolved by rotation for 15 minutes (1 rpm, 25° C.). Then, the resultant product was subjected to centrifugation (at 3000 rpm×15 minutes, 4° C.), and the supernatants (each tissue extract) were collected. The concentration of proteins in each tissue extract was quantified with a spectrophotometer using each tissue extract that had been diluted 20 times using DEPC-treated water.
Each tissue extract collected was subjected to Western blot analysis. An SDS-PAGE gel was prepared using TGX™ FastCast™ Acrylamide Kit, 12% (Bio-Rad). Electrophoresis samples were prepared in a 6×SDS-PAGE sample buffer (62.5 mM Tris-HCl pH 6.8, 2% SDS, 5% 2-mercaptoethanol, 10% glycerol, 0.25% BPB), and placed on a heat block at 95° C. for 5 minutes. The electrophoresis samples prepared were applied at 50 μg/well for detection of GAPDH, and applied at 100 μg/well for other detection. Electrophoresis was performed at 160 V for 60 minutes (electrophoresis buffer; 195 mM glycine, 25 mM Tris).
After electrophoresis, proteins were transferred to a PVDF membrane (Immobion™-P, Millipore) under conditions of 100 V and 1.5 hours using a tank-type blotting device and a transfer buffer (25 mM Tris-HCl, 195 mM glycine, 0.01% SDS, 15% methanol). […] Subsequently, the membrane was treated with a chemiluminescence reagent Immobilon™ Western (Millipore), and then chemiluminescence was detected using a lumino image analyzer LAS-3000 (FUJIFILM Corporation). Detected bands were quantified with an image processing software ImageJ (NIH).

endogenous DHFR protein = biological target: T3, endogenous DHFR protein (Homo sapiens, UniProt P00374); assay: Degradation of endogenous DHFR protein in HeLa cells, Western blot analysis; assay type: cell-based; settings: 50 μM, 100 μM or 200 μM, 16 hours after addition
T3 construct: degradation (knockdown) of an endogenous DHFR protein in HeLa cells; endogenous in cells; host or cells: HeLa cells
T3 sequence (P00374 1-187): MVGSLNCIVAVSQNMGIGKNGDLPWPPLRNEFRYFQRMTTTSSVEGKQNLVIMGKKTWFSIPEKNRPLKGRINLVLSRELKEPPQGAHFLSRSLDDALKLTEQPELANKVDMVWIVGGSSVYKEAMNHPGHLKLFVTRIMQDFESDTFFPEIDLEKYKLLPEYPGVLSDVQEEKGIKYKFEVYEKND

[2] = biological target: T4, catalytic subunit β2 of the proteasome (trypsin-like activity) (Homo sapiens, UniProt Q99436); assay: 20S proteasome inhibitory activity, catalytic subunit β2; assay type: biochemical; settings: AMC fluorescence substrate
T4 construct: purchased Bioscience
Description: (§1) For evaluation, 20S Proteasome StressXpress™ Assay Kit Gold (Bioscience) was used. AMC was measured by using Multi-Detection Microplate Reader (Synergy HT, BIO-TEK). The AMC was produced by cleaving the C-terminus of an AMC-binding proteasome fluorescence substrate specific to β subunits of a 20S proteasome, including β5 (chymotrypsin-like activity), β2 (trypsin-like activity), and β1 (caspase-like activity). The measuring wavelengths were 360 nm for excitation light (Ex.), and 460 nm for fluorescence (Em.).
(§2) In Reference Example 11, as in Reference Example 4, a proteasome inhibitory activity of TMP-CANDDY_ALLN and an affinity of TMP-CANDDY_ALLN with a proteasome were evaluated.

[3] = biological target: T1, catalytic subunit β1 of a proteasome (caspase-like activity); assay: 20S proteasome inhibitory activity, catalytic subunit β1; assay type: biochemical; settings: AMC fluorescence substrate
Description: as §1, §2

20S proteasome = biological target: T5, 20S proteasome (Homo sapiens, UniProt P28072+P28074+Q99436); assay: Affinity with a proteasome evaluated from 20S proteasome assay kit; assay type: biochemical; settings: suggested from concentration dependent inhibitory activity against β1, β2, β5
T5 construct: purchased Bioscience
Description: In Reference Example 2, the proteasome inhibitory activity of TMP-CANDDY_DMT and the affinity of TMP-CANDDY_DMT with a proteasome were evaluated. As a positive control, MG-132 as a proteasome inhibitor was used.
as §1, §2

ecDHFR protein [4] = biological target: T6, ecDHFR protein (Escherichia coli, UniProt P0ABQ4); assay type: cell-based, human; settings: HeLa cells
T6 construct: expressed in transfected cells; host or cells: HeLa cells, transient transfection with pMIR-DsRed-IRES-ecDHFR-HA-GFP

ecDHFR protein [5] = biological target: T6, ecDHFR protein; assay type: cell-based, human; settings: HeLa cells, 24 hours after addition, vs control (DMSO)
[6] = biological target: T7, catalytic subunit β5 of the proteasome (chymotrypsin-like activity) (Homo sapiens, UniProt P28074); assay: 20S proteasome inhibitory activity, catalytic subunit β5; assay type: biochemical; settings: AMC fluorescence substrate
T7 construct: purchased Bioscience
Description: as §1, §2

## CCCC[C@@H](C=O)NC(=O)[C@H](CC(C)C)NC(=O)[C@H](CC(C)C)NC(C)=O [ALLN, Calpain inhibitor I] (Ac-Leu-Leu-[Nle]-aldehyde)
[1]
  inhibition of β1 (caspase-like activity): not inhibited

## CC(C)C[C@H](NC(=O)CNC(=O)c1cc(Cl)ccc1Cl)C(=O)NCCCCCCNC(=O)CC[C@H](NC(=O)c1ccc(N(C)Cc2cnc3nc(N)nc(N)c3n2)cc1)C(=O)O [MTX-CANDDY_MLN]
DHFR protein; intraperitoneal 50 or 100 mg/kg body weight, 24 hours after administration, heart
  amount of DHFR protein in heart: reduction in the amount of the DHFR protein was not found
DHFR protein; intraperitoneal 50 or 100 mg/kg body weight, 24 hours after administration, kidneys
  amount of DHFR protein in kidneys: reduced in a concentration dependent manner
DHFR protein; intraperitoneal 50 or 100 mg/kg body weight, 24 hours after administration, liver
  amount of DHFR protein in liver: reduced in a concentration dependent manner
DHFR protein; suggested from DHFR degradation in tissues
  transfer property to tissues (molecular kinetics): showed a higher transfer property in the liver and kidneys, as compared with the heart
Endogenous DHFR protein
  amount of endogenous DHFR protein: decreased in a concentration dependent manner

## COc1nc(NCCCCCCNC(=O)COc2c(OC)cc(Cc3cnc(N)nc3N)cc2OC)nc(OC)n1 [TMP-CANDDY_DMT]
[2]
  proteasome inhibitory activity against β2 (trypsin-like activity): significantly lower proteasome inhibitory activity as compared with MG-132
[3]
  proteasome inhibitory activity against β1 (caspase-like activity): significantly lower proteasome inhibitory activity as compared with MG-132
20S proteasome
  affinity with a proteasome: moderate affinity with a proteasome
ecDHFR protein [4]; 24 hours after addition, cycloheximide 50 μg/mL added after 12 hours
  amount of ecDHFR protein: the amount of the ecDHFR protein was reduced
ecDHFR protein [4]; both TMP-CANDDY_DMT and bortezomib added, compared with TMP-CANDDY_DMT alone
  degradation of ecDHFR protein when bortezomib is added together: degradation of the ecDHFR protein was inhibited
ecDHFR protein [5]
  degradation (knockdown) of ecDHFR protein (shift of GFP/DsRed ratio graph): degradation of the ecDHFR protein was induced
[6]
  proteasome inhibitory activity against β5 (chymotrypsin-like activity): significantly lower proteasome inhibitory activity as compared with MG-132
